Reference: the supplement of paper PMC10307832

What was measured:
Assay in all cases: relative viability (nuclei count vs DMSO), 5 days (fraction); higher = more cells survive
[1] = compound: C1CC(C2=C(C1)C3=C(N2)C=CC(=C3)Cl)C(=O)N [Selisistat] + NC(=O)Nc1cc(-c2cccc(F)c2)sc1C(=O)N[C@H]1CCCNC1 [AZD7762] (partner 0.2 µM)
In short: (§1)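 Relative viability divides the nuclei count in treated wells by that in vehicle wells. Lung cancer cell lines were seeded in 1536-well plates, dosed by pin tool the next day, and fixed and stained after 5 days in one step with final 0.05% Triton X-100, 1% formaldehyde and 1 ug/ml Hoechst. Dosing was a single drug or a fixed anchor-drug dose plus five library-drug doses (not always all listed) in √10 steps, and values are medians of duplicate plates imaged at 4×.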

[2] = compound: C1CC(C2=C(C1)C3=C(N2)C=CC(=C3)Cl)C(=O)N [Selisistat] + CC(=O)c1c(C)c2cnc(Nc3ccc(N4CCNCC4)cn3)nc2n(C2CCCC2)c1=O [Palbociclib] (partner 0.5 µM)
In short: as §1

[3] = compound: C1CC(C2=C(C1)C3=C(N2)C=CC(=C3)Cl)C(=O)N [Selisistat] + CCNC(=O)c1noc(-c2cc(C(C)C)c(O)cc2O)c1-c1ccc(CN2CCOCC2)cc1 [Luminespib] (partner 0.01 µM)
In short: as §1

[4] = compound: c1ccc2c(CCNc3ccc(Nc4ccncc4)cc3)c[nH]c2c1 [Serdemetan] + CC(=O)c1c(C)c2cnc(Nc3ccc(N4CCNCC4)cn3)nc2n(C2CCCC2)c1=O [Palbociclib] (partner 0.5 µM)
In short: as §1

Cell Line | relative viability ([1]; first compound 0.4 µM) | relative viability ([1]; first compound 1.265 µM) | relative viability ([1]; first compound 4 µM) | relative viability ([1]; first compound 12.65 µM) | relative viability ([1]; first compound 40 µM) | relative viability ([2]; first compound 0.4 µM) | relative viability ([2]; first compound 1.265 µM) | relative viability ([2]; first compound 4 µM) | relative viability ([2]; first compound 12.65 µM) | relative viability ([2]; first compound 40 µM) | relative viability ([3]; first compound 0.4 µM) | relative viability ([3]; first compound 12.65 µM) | relative viability ([3]; first compound 40 µM) | relative viability ([4]; first compound 0.04 µM) | relative viability ([4]; first compound 0.1265 µM) | relative viability ([4]; first compound 0.4 µM) | relative viability ([4]; first compound 1.265 µM) | relative viability ([4]; first compound 4 µM) | relative viability ([3]; first compound 1.265 µM) | relative viability ([3]; first compound 4 µM)
HCC-44 | 1 | 1.04 | 1.1 | 1.02 | 1.15 | 1.05 | 0.975 | 1.07 | 0.994 | 1.06 | 1.05 | 1.12 | 1.16 | 0.927 | 0.93 | 0.953 | 0.92 | 0.922 | – | –
HCC-827 | 0.206 | 0.154 | 0.187 | 0.279 | 0.24 | 0.483 | 0.475 | 0.534 | 0.439 | 0.527 | 0.619 | 0.575 | 0.832 | 0.454 | 0.448 | – | 0.412 | 0.303 | 0.6 | 0.482
NCI-H1623 | – | – | – | – | – | – | – | – | – | – | 0.701 | 0.644 | 0.503 | – | – | – | – | – | 0.504 | 0.315
NCI-H2347 | 0.733 | 0.66 | – | 0.774 | 0.795 | 0.38 | 0.438 | – | 0.409 | 0.447 | 0.322 | 0.283 | 1.01 | 0.448 | 0.367 | 0.403 | 0.358 | 0.406 | 0.406 | 0.186
NCI-H1650 | – | – | – | – | – | 0.362 | 0.301 | 0.357 | 0.364 | 0.334 | 0.17 | 0.202 | 0.191 | 0.318 | 0.275 | 0.282 | 0.257 | 0.262 | 0.192 | 0.178
HCC-78 | 0.626 | 0.669 | 0.431 | 0.683 | 0.502 | 0.488 | 0.461 | 0.435 | 0.476 | 0.473 | – | – | – | 0.449 | 0.391 | 0.494 | 0.437 | 0.47 | – | –
NCI-H1563 | – | – | – | – | – | – | – | – | – | – | 0.473 | 0.528 | 0.541 | – | – | – | – | – | 0.523 | 0.54
COR-L23 | – | – | – | – | – | 0.372 | 0.296 | 0.332 | 0.305 | 0.296 | 0.709 | 0.655 | 0.61 | 0.235 | 0.3 | 0.349 | 0.213 | 0.236 | 0.715 | 0.641
NCI-H1648 | 0.736 | 0.64 | – | 0.731 | 0.768 | 0.281 | 0.268 | – | 0.296 | 0.299 | – | – | – | – | 0.233 | 0.242 | 0.219 | 0.212 | – | –
NCI-H1703 | 0.116 | 0.114 | – | 0.139 | 0.136 | – | – | – | – | – | – | – | – | – | – | – | – | – | – | –
SK-LU-1 | – | – | – | – | – | 0.394 | 0.361 | 0.367 | 0.43 | 0.411 | 0.202 | 0.213 | 0.227 | 0.37 | 0.393 | 0.365 | 0.319 | 0.346 | 0.176 | 0.189
COR-L 105 | – | – | – | – | – | 0.427 | 0.378 | 0.397 | 0.419 | 0.437 | 0.464 | 0.909 | 0.775 | 0.4 | 0.403 | 0.359 | 0.297 | 0.411 | 0.608 | –
HCC-366 | 0.315 | 0.225 | 0.257 | 0.186 | 0.166 | 0.414 | 0.447 | 0.37 | 0.355 | 0.377 | – | – | – | 0.351 | 0.281 | 0.0795 | 0.0413 | 0.0782 | – | –
NCI-H596 | 1.14 | 1.01 | 0.887 | 1.05 | 1.06 | – | – | – | – | – | 0.981 | 0.668 | 0.775 | – | – | – | – | – | 0.938 | 1.08
NCI-H2228 | – | – | – | – | – | 0.797 | 0.726 | 0.802 | 0.795 | 0.801 | 0.153 | 0.145 | 0.13 | 0.644 | 0.61 | 0.511 | 0.115 | 0.233 | 0.101 | 0.152
SK-MES-1 | – | – | – | – | – | 0.34 | 0.347 | 0.309 | 0.314 | 0.378 | 1 | 0.622 | 0.788 | 0.271 | 0.309 | 0.285 | 0.302 | 0.325 | 0.906 | 0.802
SW 1573 | – | – | – | – | – | 0.353 | 0.366 | – | 0.371 | 0.388 | 0.154 | 0.206 | 0.228 | 0.446 | 0.362 | 0.444 | 0.343 | 0.234 | 0.135 | 0.222
NCI-H661 | – | – | – | – | – | 0.421 | 0.392 | 0.374 | 0.414 | 0.374 | 0.977 | 0.833 | 0.732 | 0.387 | 0.416 | 0.411 | 0.382 | 0.393 | 0.966 | 0.928
NCI-H520 | – | – | – | – | – | 0.224 | 0.208 | 0.198 | 0.274 | 0.236 | 0.233 | 0.233 | 0.206 | 0.261 | 0.215 | 0.252 | 0.179 | 0.193 | 0.255 | 0.232
NCI-H2023 | – | – | – | – | – | 0.34 | 0.354 | 0.401 | 0.378 | 0.353 | 0.664 | 0.628 | 0.732 | 0.355 | 0.328 | 0.341 | 0.263 | 0.215 | 0.633 | 0.648
NCI-H2009 | – | – | – | – | – | 0.202 | 0.184 | 0.136 | 0.202 | 0.191 | 1.07 | 0.944 | 0.944 | 0.238 | 0.227 | 0.258 | 0.162 | 0.193 | 1.05 | –
